From PubChem BioAssay (NCI)
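Assay format: 96-well plates, 48-hour exposure. Definition used: TGI = concentration required for complete inhibition of growth.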

Experiments:
Assay in all cases: inhibition of tumour cell growth, NCI panel, 48 h
786-0 renal = tested on: 786-0 renal
A498 renal = tested on: A498 renal
A549 NSCLC = tested on: A549 NSCLC
ACHN renal = tested on: ACHN renal
BT-549 breast = tested on: BT-549 breast
CAKI-1 renal = tested on: CAKI-1 renal
CCRF-CEM leukemia = tested on: CCRF-CEM leukemia
COLO 205 colon = tested on: COLO 205 colon
DMS 114 small cell lung = tested on: DMS 114 small cell lung
DMS 273 small cell lung = tested on: DMS 273 small cell lung
DU-145 prostate = tested on: DU-145 prostate
EKVX NSCLC = tested on: EKVX NSCLC
HCC-2998 colon = tested on: HCC-2998 colon
HCT-116 colon = tested on: HCT-116 colon
HCT-15 colon = tested on: HCT-15 colon
HL-60(TB) leukemia = tested on: HL-60(TB) leukemia
HOP-18 NSCLC = tested on: HOP-18 NSCLC
HOP-62 NSCLC = tested on: HOP-62 NSCLC
HOP-92 NSCLC = tested on: HOP-92 NSCLC
HS 578T breast = tested on: HS 578T breast
HT29 colon = tested on: HT29 colon
IGROV1 ovarian = tested on: IGROV1 ovarian
K-562 leukemia = tested on: K-562 leukemia
KM12 colon = tested on: KM12 colon
LOX IMVI melanoma = tested on: LOX IMVI melanoma
LXFL 529 NSCLC = tested on: LXFL 529 NSCLC
M14 melanoma = tested on: M14 melanoma
M19-MEL melanoma = tested on: M19-MEL melanoma
MALME-3M melanoma = tested on: MALME-3M melanoma
MCF7 breast = tested on: MCF7 breast
MDA-MB-231 breast = tested on: MDA-MB-231 breast
MDA-MB-435 = tested on: MDA-MB-435
MDA-N = tested on: MDA-N
NCI-H226 lung = tested on: NCI-H226 lung
NCI-H23 lung = tested on: NCI-H23 lung
NCI-H460 lung = tested on: NCI-H460 lung
NCI-H522 lung = tested on: NCI-H522 lung
NCI/ADR-RES ovarian = tested on: NCI/ADR-RES ovarian
OVCAR-3 ovarian = tested on: OVCAR-3 ovarian
OVCAR-4 ovarian = tested on: OVCAR-4 ovarian
OVCAR-5 ovarian = tested on: OVCAR-5 ovarian
OVCAR-8 ovarian = tested on: OVCAR-8 ovarian
PC-3 prostate = tested on: PC-3 prostate
RPMI-8226 leukemia = tested on: RPMI-8226 leukemia
RXF 393 renal = tested on: RXF 393 renal
RXF-631 renal = tested on: RXF-631 renal
SF-268 CNS = tested on: SF-268 CNS
SF-295 CNS = tested on: SF-295 CNS
SF-539 CNS = tested on: SF-539 CNS
SK-MEL-2 melanoma = tested on: SK-MEL-2 melanoma
SK-MEL-28 melanoma = tested on: SK-MEL-28 melanoma
SK-MEL-5 melanoma = tested on: SK-MEL-5 melanoma
SK-OV-3 ovarian = tested on: SK-OV-3 ovarian
SN12C renal = tested on: SN12C renal
SNB-19 CNS = tested on: SNB-19 CNS
SNB-75 CNS = tested on: SNB-75 CNS
SNB-78 CNS = tested on: SNB-78 CNS
SR leukemia = tested on: SR leukemia
SW-620 colon = tested on: SW-620 colon
T-47D breast = tested on: T-47D breast
TK-10 renal = tested on: TK-10 renal
U251 CNS = tested on: U251 CNS
UACC-257 melanoma = tested on: UACC-257 melanoma
UACC-62 melanoma = tested on: UACC-62 melanoma
UO-31 renal = tested on: UO-31 renal
XF 498 CNS = tested on: XF 498 CNS
DLD-1 colon = tested on: DLD-1 colon
KM20L2 colon = tested on: KM20L2 colon
MOLT-4 leukemia = tested on: MOLT-4 leukemia

CSC(=Nc1ccccc1)/N=C(\SCc1ccccc1)N(C)C
TGI (786-0 renal): 1.78 µM
TGI (A498 renal): 5.27 µM
TGI (A549 NSCLC): 4.63 µM
TGI (ACHN renal): 2.39 µM
TGI (BT-549 breast): 2.86 µM
TGI (CAKI-1 renal): 2.79 µM
TGI (CCRF-CEM leukemia): > 100 µM
TGI (COLO 205 colon): 1.58 µM
TGI (DMS 114 small cell lung): 3.77 µM
TGI (DMS 273 small cell lung): 2.57 µM
TGI (DU-145 prostate): 2.13 µM
TGI (EKVX NSCLC): 3.33 µM
TGI (HCC-2998 colon): 1.69 µM
TGI (HCT-116 colon): 1.38 µM
TGI (HCT-15 colon): 2.38 µM
TGI (HL-60(TB) leukemia): > 100 µM
TGI (HOP-18 NSCLC): 2.1 µM
TGI (HOP-62 NSCLC): 3.31 µM
TGI (HOP-92 NSCLC): 2.73 µM
TGI (HS 578T breast): 4.17 µM
TGI (HT29 colon): 1.05 µM
TGI (IGROV1 ovarian): 2.45 µM
TGI (K-562 leukemia): > 100 µM
TGI (KM12 colon): 2.76 µM
TGI (LOX IMVI melanoma): 0.383 µM
TGI (LXFL 529 NSCLC): 1.79 µM
TGI (M14 melanoma): 2.12 µM
TGI (M19-MEL melanoma): 3.36 µM
TGI (MALME-3M melanoma): 2.65 µM
TGI (MCF7 breast): 1.19 µM
TGI (MDA-MB-231 breast): 2.39 µM
TGI (MDA-MB-435): 2.48 µM
TGI (MDA-N): 2.03 µM
TGI (NCI-H226 lung): 3.1 µM
TGI (NCI-H23 lung): 3.32 µM
TGI (NCI-H460 lung): 0.691 µM
TGI (NCI-H522 lung): 0.54 µM
TGI (NCI/ADR-RES ovarian): 3.77 µM
TGI (OVCAR-3 ovarian): 2.1 µM
TGI (OVCAR-4 ovarian): 2.43 µM
TGI (OVCAR-5 ovarian): 2.84 µM
TGI (OVCAR-8 ovarian): 3.22 µM
TGI (PC-3 prostate): 2.55 µM
TGI (RPMI-8226 leukemia): 3.57 µM
TGI (RXF 393 renal): 2.3 µM
TGI (RXF-631 renal): 3.12 µM
TGI (SF-268 CNS): 2.48 µM
TGI (SF-295 CNS): 2.89 µM
TGI (SF-539 CNS): 2.57 µM
TGI (SK-MEL-2 melanoma): 3.44 µM
TGI (SK-MEL-28 melanoma): 1.79 µM
TGI (SK-MEL-5 melanoma): 2.92 µM
TGI (SK-OV-3 ovarian): 6.69 µM
TGI (SN12C renal): 2.42 µM
TGI (SNB-19 CNS): 2.68 µM
TGI (SNB-75 CNS): 3.25 µM
TGI (SNB-78 CNS): 4.16 µM
TGI (SR leukemia): > 100 µM
TGI (SW-620 colon): 1.83 µM
TGI (T-47D breast): 1.97 µM
TGI (TK-10 renal): 2.63 µM
TGI (U251 CNS): 2.54 µM
TGI (UACC-257 melanoma): 3.23 µM
TGI (UACC-62 melanoma): 1.87 µM
TGI (UO-31 renal): 2.82 µM
TGI (XF 498 CNS): 2.66 µM

NC(=O)NC1C(C(N)=O)N(Cc2ccccc2)C(=O)N1Cc1ccccc1 (stereo unspecified)
TGI (786-0 renal): > 100 µM
TGI (A549 NSCLC): > 100 µM
TGI (ACHN renal): > 100 µM
TGI (CAKI-1 renal): > 100 µM
TGI (CCRF-CEM leukemia): > 100 µM
TGI (COLO 205 colon): > 100 µM
TGI (DLD-1 colon): > 100 µM
TGI (DMS 114 small cell lung): > 100 µM
TGI (DMS 273 small cell lung): > 100 µM
TGI (EKVX NSCLC): > 100 µM
TGI (HCC-2998 colon): > 100 µM
TGI (HCT-116 colon): > 100 µM
TGI (HCT-15 colon): > 100 µM
TGI (HL-60(TB) leukemia): > 100 µM
TGI (HOP-18 NSCLC): > 100 µM
TGI (HOP-62 NSCLC): > 100 µM
TGI (HOP-92 NSCLC): > 100 µM
TGI (HT29 colon): > 100 µM
TGI (IGROV1 ovarian): > 100 µM
TGI (K-562 leukemia): > 100 µM
TGI (KM12 colon): > 100 µM
TGI (KM20L2 colon): > 100 µM
TGI (LOX IMVI melanoma): > 100 µM
TGI (LXFL 529 NSCLC): > 100 µM
TGI (M14 melanoma): > 100 µM
TGI (M19-MEL melanoma): > 100 µM
TGI (MALME-3M melanoma): > 100 µM
TGI (MOLT-4 leukemia): > 100 µM
TGI (NCI-H23 lung): > 100 µM
TGI (NCI-H460 lung): > 100 µM
TGI (NCI-H522 lung): > 100 µM
TGI (OVCAR-3 ovarian): > 100 µM
TGI (OVCAR-4 ovarian): > 100 µM
TGI (OVCAR-5 ovarian): > 100 µM
TGI (OVCAR-8 ovarian): > 100 µM
TGI (RPMI-8226 leukemia): > 100 µM
TGI (RXF-631 renal): > 100 µM
TGI (SF-268 CNS): > 100 µM
TGI (SF-295 CNS): > 100 µM
TGI (SF-539 CNS): > 100 µM
TGI (SK-MEL-2 melanoma): > 100 µM
TGI (SK-MEL-28 melanoma): > 100 µM
TGI (SK-MEL-5 melanoma): > 100 µM
TGI (SK-OV-3 ovarian): > 100 µM
TGI (SNB-19 CNS): > 100 µM
TGI (SNB-75 CNS): > 100 µM
TGI (SNB-78 CNS): > 100 µM
TGI (SR leukemia): > 100 µM
TGI (SW-620 colon): > 100 µM
TGI (TK-10 renal): > 100 µM
TGI (U251 CNS): > 100 µM
TGI (UACC-257 melanoma): > 100 µM
TGI (UACC-62 melanoma): > 100 µM
TGI (UO-31 renal): > 100 µM
TGI (XF 498 CNS): > 100 µM
